Experimental data as given in PubChem BioAssay (NCI).
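A five-concentration, 48-hour dose response in 96-well plates underlies each endpoint, interpolated linearly between surrounding concentrations. GI50: concentration for 50% inhibition of growth. TGI marks complete inhibition of growth.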

Experiments:
Test in all cases: inhibition of tumour cell growth, NCI panel, 48 h
OVCAR-5 ovarian = system: OVCAR-5 ovarian
UACC-257 melanoma = system: UACC-257 melanoma
HOP-92 NSCLC = system: HOP-92 NSCLC
HT29 colon = system: HT29 colon
HCT-116 colon = system: HCT-116 colon
SW-620 colon = system: SW-620 colon
PC-3 prostate = system: PC-3 prostate
U251 CNS = system: U251 CNS
IGROV1 ovarian = system: IGROV1 ovarian
SF-539 CNS = system: SF-539 CNS
T-47D breast = system: T-47D breast
TK-10 renal = system: TK-10 renal
UO-31 renal = system: UO-31 renal
NCI-H522 lung = system: NCI-H522 lung
KM12 colon = system: KM12 colon
HL-60(TB) leukemia = system: HL-60(TB) leukemia
BT-549 breast = system: BT-549 breast
COLO 205 colon = system: COLO 205 colon
HCC-2998 colon = system: HCC-2998 colon
MCF7 breast = system: MCF7 breast
OVCAR-4 ovarian = system: OVCAR-4 ovarian
OVCAR-8 ovarian = system: OVCAR-8 ovarian
K-562 leukemia = system: K-562 leukemia
ACHN renal = system: ACHN renal
SK-MEL-5 melanoma = system: SK-MEL-5 melanoma
MDA-MB-468 breast = system: MDA-MB-468 breast
SF-295 CNS = system: SF-295 CNS
SK-MEL-28 melanoma = system: SK-MEL-28 melanoma
NCI-H23 lung = system: NCI-H23 lung
M14 melanoma = system: M14 melanoma
OVCAR-3 ovarian = system: OVCAR-3 ovarian
A498 renal = system: A498 renal
NCI-H226 lung = system: NCI-H226 lung
DU-145 prostate = system: DU-145 prostate
SN12C renal = system: SN12C renal
HS 578T breast = system: HS 578T breast
SK-MEL-2 melanoma = system: SK-MEL-2 melanoma
HCT-15 colon = system: HCT-15 colon
SK-OV-3 ovarian = system: SK-OV-3 ovarian
UACC-62 melanoma = system: UACC-62 melanoma
CAKI-1 renal = system: CAKI-1 renal
RPMI-8226 leukemia = system: RPMI-8226 leukemia
NCI-H460 lung = system: NCI-H460 lung
HOP-62 NSCLC = system: HOP-62 NSCLC
MOLT-4 leukemia = system: MOLT-4 leukemia
MDA-MB-435 = system: MDA-MB-435
MDA-MB-231 breast = system: MDA-MB-231 breast
SR leukemia = system: SR leukemia
LOX IMVI melanoma = system: LOX IMVI melanoma
CCRF-CEM leukemia = system: CCRF-CEM leukemia
SNB-75 CNS = system: SNB-75 CNS
EKVX NSCLC = system: EKVX NSCLC
RXF 393 renal = system: RXF 393 renal
SNB-19 CNS = system: SNB-19 CNS
786-0 renal = system: 786-0 renal
A549 NSCLC = system: A549 NSCLC
MALME-3M melanoma = system: MALME-3M melanoma
SF-268 CNS = system: SF-268 CNS

## O=C(c1ccc(O)cc1)C1[C@H](c2ccc(Br)cc2)[C@@H](c2ccccc2)NC12C(=O)Nc1ccc(Br)cc12 (stereo partly specified)
OVCAR-5 ovarian
  GI50: 4.83 µM
  TGI: 9.34 µM
UACC-257 melanoma
  GI50: 4.93 µM
  TGI: 9.52 µM
HOP-92 NSCLC
  GI50: 4.39 µM
  TGI: 9.26 µM
HT29 colon
  GI50: 4.48 µM
  TGI: 9.48 µM
HCT-116 colon
  GI50: 4.16 µM
  TGI: 8.63 µM
SW-620 colon
  GI50: 5.08 µM
  TGI: 10.2 µM
PC-3 prostate
  GI50: 4.14 µM
  TGI: 9.22 µM
U251 CNS
  GI50: 4.96 µM
  TGI: 9.62 µM
IGROV1 ovarian
  GI50: 3.88 µM
  TGI: 8.19 µM
SF-539 CNS
  GI50: 5.34 µM
  TGI: 10 µM
T-47D breast
  GI50: 3.93 µM
  TGI: 8.58 µM
TK-10 renal
  GI50: 4.44 µM
  TGI: 8.86 µM
UO-31 renal
  GI50: 2.66 µM
  TGI: 7.08 µM
NCI-H522 lung
  GI50: 4.45 µM
  TGI: 9.15 µM
KM12 colon
  GI50: 4.5 µM
  TGI: 10.1 µM
HL-60(TB) leukemia
  GI50: 7.39 µM
  TGI: 16.7 µM
BT-549 breast
  GI50: 5.54 µM
  TGI: 10.4 µM
COLO 205 colon
  GI50: 4.57 µM
  TGI: 9.99 µM
HCC-2998 colon
  GI50: 4.19 µM
  TGI: 8.86 µM
MCF7 breast
  GI50: 3.89 µM
  TGI: 9.13 µM
OVCAR-4 ovarian
  GI50: 4.82 µM
  TGI: 9.63 µM
OVCAR-8 ovarian
  GI50: 5.06 µM
  TGI: 9.8 µM
K-562 leukemia
  GI50: 4.72 µM
  TGI: 11.8 µM
ACHN renal
  GI50: 4.03 µM
  TGI: 8.21 µM
SK-MEL-5 melanoma
  GI50: 5.63 µM
  TGI: 10.4 µM
MDA-MB-468 breast
  GI50: 4.58 µM
  TGI: 9.97 µM
SF-295 CNS
  GI50: 4.23 µM
  TGI: 8.81 µM
SK-MEL-28 melanoma
  GI50: 5.3 µM
  TGI: 9.96 µM
NCI-H23 lung
  GI50: 4.9 µM
  TGI: 9.81 µM
M14 melanoma
  GI50: 4.52 µM
  TGI: 9.24 µM
OVCAR-3 ovarian
  GI50: 5.21 µM
  TGI: 10.1 µM
A498 renal
  GI50: 4.24 µM
  TGI: 8.7 µM
NCI-H226 lung
  GI50: 4.39 µM
  TGI: 9.76 µM
DU-145 prostate
  GI50: 5.23 µM
  TGI: 10 µM
SN12C renal
  GI50: 4.53 µM
  TGI: 8.99 µM
HS 578T breast
  GI50: 4.95 µM
  TGI: 12.9 µM
SK-MEL-2 melanoma
  GI50: 4.95 µM
  TGI: 9.48 µM
HCT-15 colon
  GI50: 4.16 µM
  TGI: 9.35 µM
SK-OV-3 ovarian
  GI50: 4.51 µM
  TGI: 9.21 µM
UACC-62 melanoma
  GI50: 4.22 µM
  TGI: 8.54 µM
CAKI-1 renal
  GI50: 2.28 µM
  TGI: 7.08 µM
RPMI-8226 leukemia
  GI50: 5.97 µM
  TGI: 19 µM
NCI-H460 lung
  GI50: 4.29 µM
  TGI: 8.92 µM
HOP-62 NSCLC
  GI50: 4.81 µM
  TGI: 9.7 µM
MOLT-4 leukemia
  GI50: 3.39 µM
  TGI: 9.62 µM
MDA-MB-435
  GI50: 5.81 µM
  TGI: 11.1 µM
MDA-MB-231 breast
  GI50: 4.25 µM
  TGI: 8.61 µM
SR leukemia
  GI50: 3.79 µM
  TGI: 9.3 µM
LOX IMVI melanoma
  GI50: 4.36 µM
  TGI: 9.1 µM
CCRF-CEM leukemia
  GI50: 5.09 µM
  TGI: 11.6 µM
SNB-75 CNS
  GI50: 2.12 µM
  TGI: 7.06 µM
EKVX NSCLC
  GI50: 4.19 µM
  TGI: 9.07 µM
RXF 393 renal
  GI50: 3.54 µM
  TGI: 8.33 µM
SNB-19 CNS
  GI50: 5.11 µM
  TGI: 9.75 µM
786-0 renal
  GI50: 5.22 µM
  TGI: 9.86 µM
A549 NSCLC
  GI50: 3.59 µM
  TGI: 8.38 µM
MALME-3M melanoma
  GI50: 4.96 µM
  TGI: 9.61 µM
SF-268 CNS
  GI50: 4.56 µM
  TGI: 10.2 µM
